According to US6943171B2, “Polycyclic guanine derivative phosphodiesterase V inhibitors” (Schering Corporation, priority 2001, dated 2005):

Molecular target: PDE V isoenzyme (Homo sapiens, UniProt O76074)
Experiment: PDE V isoenzyme inhibition (PDE V IC50)
Type: biochemical
Conditions: bound printed as 'about <'
Text: The compounds of the invention can be useful for inhibiting PDE V isoenzymes. Isoenzyme activity (potency) and isoenzyme selectivity for a compound can be evaluated in a number of ways. […] Similarly, an IC50 value may be obtained for other PDE isoenzymes, such as the PDE VI isoenzyme. Isoenzyme selectivity in this respect may be defined as the activity (potency) of a PDE inhibitor compound for a particular PDE isoenzyme as opposed to another PDE isoenzyme, for example, the activity of a compound to inhibit a PDE V isoenzyme compared to the activity of the same compound to inhibit a PDE VI isoenzyme.

SMILES	IC50
CCN1C(=O)c2c(nc(Br)n2Cc2ccc(OC)c(Br)c2)N2C[C@@H](Cc3ccccc3)N=C12 [Compound 1.3.2]	< 4.1 nM
CCOc1nc2c(n1Cc1ccc(OC)c(Cl)c1)C(=O)N(CC)C1=N[C@H](Cc3ccccc3)CN12 [Compound 1]	< 2.2 nM
CCN1C(=O)c2c(nc(OC)n2Cc2ccc(OC)c(Cl)c2)N2C[C@@H](Cc3ccccc3)N=C12 [Compound 2]	< 1.6 nM
CCN1C(=O)c2c(nc(OC)n2Cc2ccc(OC)c(Br)c2)N2C[C@@H](Cc3ccccc3)N=C12 [Compound 3]	< 4.1 nM
CCN1C(=O)c2c(nc(Br)n2Cc2ccc(O)c(Br)c2)N2C1=N[C@@H]1CCC[C@@H]12 [Compound 4]	< 1.6 nM
CCN1C(=O)c2c(nc(OC)n2Cc2ccc(O)c(Br)c2)N2C1=N[C@@H]1CCC[C@@H]12 [Compound 5]	< 1.6 nM
CCN1C(=O)c2c(nc(OC)n2Cc2ccc(O)c(Cl)c2)N2C1=N[C@@H]1CCC[C@@H]12 [Compound 6]	< 4.1 nM
CCN1C(=O)c2c(nc(OC)n2Cc2ccc(O)cc2)N2C[C@@H](Cc3ccccc3)N=C12 [Compound 8]	< 2.5 nM
CCN1C(=O)c2c(nc(C(=O)NC)n2Cc2ccc(O)c(Cl)c2)N2C[C@@H](Cc3ccccc3)N=C12 [Compound 9]	< 4.1 nM
CCN1C(=O)c2c(nc(C(N)=O)n2Cc2ccc(O)c(Cl)c2)N2C[C@@H](Cc3ccccc3)N=C12 [Compound 10]	< 4.1 nM
CCN1C(=O)c2c(nc(C(=O)OC)n2Cc2ccc(O)c(Cl)c2)N2C[C@@H](Cc3ccccc3)N=C12 [Compound 11]	< 1.6 nM
CCN1C(=O)c2c(nc(Br)n2Cc2ccc(O)c(Cl)c2)N2C[C@@H](Cc3ccccc3)N=C12 [Compound 12]	< 4.1 nM
CCN1C(=O)c2c(nc(Br)n2Cc2ccc(O)c(Br)c2)N2C[C@@H](Cc3ccccc3)N=C12 [Compound 13]	< 4.1 nM
CCN1C(=O)c2c(nc(Cl)n2Cc2ccc(O)cc2)N2C[C@@H](Cc3ccccc3)N=C12 [Compound 15]	< 4.1 nM
CCOc1nc2c(n1Cc1ccc(O)c(Cl)c1)C(=O)N(CC)C1=N[C@H](Cc3ccccc3)CN12 [Compound 16]	< 1.6 nM
CCN1C(=O)c2c(nc(OC)n2Cc2ccc(O)c(Cl)c2)N2C[C@@H](Cc3ccccc3)N=C12 [Compound 17]	< 1.6 nM
CCN1C(=O)c2c(nc(OC)n2Cc2ccc(O)c(Br)c2)N2C[C@@H](Cc3ccccc3)N=C12 [Compound 18]	< 1.6 nM
CCOc1nc2c(n1Cc1ccc(O)c(Cl)c1)C(=O)N(CC)C1=N[C@H](C(C)C)CN12 [Compound 19]	< 4.1 nM
CCN1C(=O)c2c(nc(Br)n2Cc2ccc(O)c(Cl)c2)N2C[C@@H](Cc3ccc(F)cc3)N=C12 [Compound 21]	< 2.2 nM
CCOc1nc2c(n1Cc1ccc(O)c(Br)c1)C(=O)N(CC)C1=N[C@H](Cc3ccccc3F)CN12 [Compound 22]	< 4.1 nM
CCN1C(=O)c2c(nc(Br)n2Cc2ccc(O)c(Br)c2)N2C[C@@H](Cc3cccc(F)c3)N=C12 [Compound 23]	< 4.1 nM
